According to patent US7910612B2, “4-oxy-N-[1,3,4]-thiadiazol-2-yl-benzene sulfonamides, pharmaceutical compositions and methods for their therapeutic use” (Sanofi-Aventis, priority 2005, dated 2011):

target: T1, human PPARgamma (Homo sapiens, UniProt P37231); assay: cellular PPARgamma assay (transiently transfected HEK cells, luciferase reporter); format: cell-based
T1 construct: amino acids 1152-Y475; expressed in transfected cells; host or cells: HEK (human embryonic kidney) cells, transiently transfected with pcDNA3-GAL4-humanPPARgammaLBD
T1 sequence (P37231 182-477 isoform P37231-2 limits assumed): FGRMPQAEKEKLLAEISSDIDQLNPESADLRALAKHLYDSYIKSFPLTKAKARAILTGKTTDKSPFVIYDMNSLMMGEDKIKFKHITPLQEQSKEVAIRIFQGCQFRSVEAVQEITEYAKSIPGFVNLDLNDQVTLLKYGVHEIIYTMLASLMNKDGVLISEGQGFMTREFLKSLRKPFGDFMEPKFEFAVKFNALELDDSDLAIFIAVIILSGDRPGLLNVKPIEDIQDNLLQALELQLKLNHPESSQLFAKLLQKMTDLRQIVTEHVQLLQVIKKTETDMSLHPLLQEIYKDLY
Source text: A transient transfection system is employed to determine the cellular PPARgamma activity of PPAR agonists. It is based on the use of a luciferase reporter plasmid (pGL3basic-5xGAL4-TK) and of a PPARgamma expression plasmid (pcDNA3-GAL4-humanPPARgammaLBD). Both plasmids are transiently transfected into human embryonic kidney cells (HEK cells). There is then expression in these cells of the fusion protein GAL4-humanPPARgammaLBD which binds to the GAL4 binding sites of the reporter plasmid. In the presence of a PPARgamma-active ligand, the activated fusion protein GAL4-humanPPARgammaLBD induces expression of the luciferase reporter gene, which can be detected in the form of a chemiluminescence signal after addition of a luciferase substrate. As a difference from the stably transfected PPARalpha reporter cell line, in the cellular PPARgamma assay the two components (luciferase reporter plasmid and PPARgamma expression plasmid) are transiently transfected into HEK cells because stable and permanent expression of the PPARgamma fusion protein is cytotoxic.
The luciferase reporter plasmid pGL3basic-5xGAL4-TK is based on the vector pGL3basic from Promega. The reporter plasmid is prepared by cloning five binding sites of the yeast transcription factor GAL4 (each binding site with the sequence 5′-CTCGGAGGACAGTACTCCG-3′), together with a 160 bp-long thymidine kinase promoter section (Genbank Accession #AF027128) 5′-upstream into pGL3basic. 3′-downstream of the thymidine kinase promoter is the complete luciferase gene from Photinus pyralis (Genbank Accession #M15077) which is already a constituent of the plasmid pGL3basic used. The cloning and sequencing of the reporter plasmid pGL3basic-5xGAL4-TK took place in analogy to the description in Sambrook J. et. al. (Molecular cloning, Cold Spring Harbor Laboratory Press, 1989).
The PPARgamma expression plasmid pcDNA3-GAL4-humanPPARgammaLBD was prepared by first cloning the cDNA coding for amino acids 1-147 of the yeast transcription factor GAL4 (Genbank Accession #P04386) into the plasmid pcDNA3 (from Invitrogen) 3′-downstream of the cytomegalovirus promoter. Subsequently, the cDNA of the ligand-binding domain (LBD) of the human PPARgamma receptor (amino acids […]; Accession #g1480099) 3′-downstream of the GAL4 DNA binding domain. Cloning and sequencing of the PPARgamma expression plasmid pcDNA3-GAL4-humanPPARgammaLBD again took place in analogy to the description in Sambrook J. et. al. (Molecular cloning, Cold Spring Harbor Laboratory Press, 1989). Besides the luciferase reporter plasmid pGL3basic-5xGAL4-TK and the PPARgamma expression plasmid pcDNA3-GAL4-humanPPARgammaLBD, also used for the cellular PPARgamma assay are the reference plasmid pRL-CMV (from Promega) and the plasmid pBluescript SK(+) from Stratagene. All four plasmids were prepared using a plasmid preparation kit from Qiagen, which ensured a plasmid quality with a minimal endotoxin content, before transfection into HEK cells.
The activity of PPARgamma agonists was then determined in a 4-day assay which is described below. Before the transfection, HEK cells are cultivated in DMEM (#41965-039, Invitrogen) which is mixed with the following additions: 10% FCS (#16000-044, Invitrogen), 1% penicillin-streptomycin solution (#15140-122, Invitrogen) and 2 mM L-glutamine (#25030-024, Invitrogen).
Firstly, solution A, a transfection mixture which contains all four plasmids previously described in addition to DMEM, is prepared. The following amounts are used to make up 3 ml of solution A for each 96 well microtiter plate for an assay: 2622 μl of antibiotic- and serum-free DMEM (#41965-039, Invitrogen), 100 μl of reference plasmid pRL-CMV (1 ng/μl), 100 μl of luciferase reporter plasmid pGL3basic-5xGAL4-TK (10 ng/μl), 100 μl of PPARgamma expression plasmid pcDNA3-GAL4-humanPPARgammaLBD (100 ng/μl) and 78 μl of plasmid pBluescript SK(+) (500 ng/μl). […]

Compound | EC50 [nM]
Cc1nc(-c2ccc(C(F)(F)F)cc2)sc1COc1ccc(S(=O)(=O)Nc2nnc(C(C)C)s2)cc1 [Example 1, N-(5-Isopropyl-[1,3,4]thiadiazol-2-yl)-4-[4-methyl-2-(4-trifluoromethyl-phenyl)-thiazol-5-ylmethoxy]-benzenesulfonamide] | 50
CC(C)c1nnc(NS(=O)(=O)c2ccc(OCc3ccc(Oc4ccc(C(F)(F)F)cc4)cc3)cc2)s1 [Example 4, N-(5-Isopropyl-[1,3,4]thiadiazol-2-yl)-4-[4-(4-trifluoromethyl-phenoxy)-benzyloxy]-benzenesulfonamide] | 460
CCc1oc(-c2cccc(C(F)(F)F)c2)nc1COc1ccc(S(=O)(=O)Nc2nnc(C(C)C)s2)cc1 [Example 14, 4-[5-Ethyl-2-(3-trifluoromethyl-phenyl)-oxazol-4-ylmethoxy]-N-(5-isopropyl-[1,3,4]thiadiazol-2-yl)-benzenesulfonamide] | 1

Now from value to compound:

EC50 [nM] | Compound
1970 | COc1ccc(-c2nc(COc3ccc(S(=O)(=O)Nc4nnc(C(C)C)s4)cc3)co2)cc1 [Example 13, N-(5-Isopropyl-[1,3,4]thiadiazol-2-yl)-4-[2-(4-methoxy-phenyl)-oxazol-4-ylmethoxy]-benzenesulfonamide]
460 | COc1ccc2c(COc3ccc(S(=O)(=O)Nc4nnc(C(C)C)s4)cc3)coc2c1 [Example 3, N-(5-Isopropyl-[1,3,4]thiadiazol-2-yl)-4-(6-methoxy-benzofuran-3-ylmethoxy)-benzenesulfonamide]
50 | COc1ccc(-c2nc(COc3ccc(S(=O)(=O)Nc4nnc(C(C)C)s4)cc3)no2)cc1 [Example 9, N-(5-Isopropyl-[1,3,4]thiadiazol-2-yl)-4-[5-(4-methoxy-phenyl)-[1,2,4]oxadiazol-3-ylmethoxy]-benzenesulfonamide]
